Results published in PMC10732280 (2023).

Assays:
[1] = tested on: S100P i-motif (DNA, i motif) TCCCAACCCCACTGTCCCACCCT; test: CD melting; conditions: K+ 100 mM, Li+ 10 mM; 10 mM lithium cacodylate pH 5.5; 10 μM DNA; 50 μM compound (5 eq.); destabilising
[2] = tested on: DAP i-motif (DNA, i motif) CCCCCGCCCCCGCCCCCGCCCCCGCCCCCG; test: CD melting; conditions: K+ 100 mM, Li+ 10 mM; 10 mM lithium cacodylate pH 5.5; 10 μM DNA; 50 μM compound (5 eq.); destabilising
[3] = tested on: hTelo i-motif (DNA, i motif) TAACCCTAACCCTAACCCTAACCC; test: CD melting; conditions: K+ 100 mM, Li+ 10 mM; 10 mM lithium cacodylate pH 5.5; 10 μM DNA; 50 μM compound (5 eq.); destabilising
[4] = tested on: ILPR i-motif (DNA, i motif) TGTCCCCACACCCCTGTCCCCACACCCCTGT; test: CD melting; conditions: K+ 100 mM, Li+ 10 mM; 10 mM lithium cacodylate pH 5.5; 10 μM DNA; 50 μM compound (5 eq.); destabilising
[5] = tested on: S100P G-quadruplex (DNA, G4) AGGGTGGGACAGTGGGGTTGGGA; test: UV-vis titration of ligand with DNA; conditions: K+ 100 mM, Li+ 10 mM; 10 mM lithium cacodylate; DNA at pH 7, ligand stock buffer pH 5.5; analysis method 1 (method 2: 1.5 ± 0.2)
[6] = tested on: S100P i-motif (DNA, i motif) TCCCAACCCCACTGTCCCACCCT; test: UV-vis titration of ligand with DNA; conditions: K+ 100 mM, Li+ 10 mM; 10 mM lithium cacodylate pH 5.5; 5 μM ligand; analysis method 1 (method 2: 10.8 ± 2.9)
[7] = tested on: S100P i-motif (DNA, i motif) TCCCAACCCCACTGTCCCACCCT; test: CD titration, Hill fit of ellipticity at 288 nm; conditions: K+ 100 mM, Li+ 10 mM; 10 mM lithium cacodylate pH 5.5; 10 μM DNA; i-motif unfolding; Hill n 2.3 ± 0.2

## O=C1c2cc(-c3ccc(CN4CCCC4)cc3)c3c4c(cc(NCCN5CCCC5)c(c24)C(=O)N1CCCN1CCOCC1)C(=O)N(CCCN1CCOCC1)C3=O
[1]
  ΔTm: −20.7 ± 1.1 °C
[2]
  ΔTm: -21.6 ± 1.1 °C
[3]
  ΔTm: -16.6 ± 0.7 °C
[4]
  ΔTm: -18.8 ± 0.4 °C
[5]
  Kd: 2.0 ± 0.3 µM
[6]
  Kd: 11.7 ± 2.9 µM
[7]
  [D]50%: 31 ± 4 µM
